Data as given in the NIST ThermoML archive (doi:10.1016/j.jct.2008.09.018).
± gives the expanded uncertainty stated by the source.

Assay: xn = mol fraction of the nth substance listed
Details: 101 kPa, Liquid; for mass density: Vibrating tube method; for viscosity: Capillary tube (Ostwald / Ubbelohde) method; for speed of sound: Pulse-echo method

CCCCCCCCCO [nonan-1-ol] + OCCO
Details | mass density, 303.15 K [kg/m3] | mass density, 308.15 K [kg/m3] | mass density, 313.15 K [kg/m3] | speed of sound, 308.15 K [m/s] | speed of sound, 313.15 K [m/s] | viscosity, 308.15 K [mPa·s] | viscosity, 313.15 K [mPa·s]
x2 = 0 | – | 817.57 ± 0.25 | 814.19 ± 0.25 | 1330.5 ± 1.6 | 1313.6 ± 1.6 | 6.713 ± 0.057 | 5.657 ± 0.05
x2 = 0.1002 | – | 826.58 ± 0.24 | 823.15 ± 0.23 | 1333.2 ± 1.6 | 1316.5 ± 1.5 | 6.801 ± 0.057 | 5.782 ± 0.049
x2 = 0.1979 | – | 837.18 ± 0.22 | 833.73 ± 0.22 | 1337.1 ± 1.5 | 1320.6 ± 1.5 | 7.044 ± 0.058 | 5.984 ± 0.05
x2 = 0.2964 | – | 849.41 ± 0.21 | 845.93 ± 0.21 | 1342.4 ± 1.5 | 1326.3 ± 1.5 | 7.487 ± 0.06 | 6.352 ± 0.052
x2 = 0.3641 | – | 859.49 ± 0.21 | 855.98 ± 0.2 | 1347.3 ± 1.5 | 1331.3 ± 1.5 | 7.872 ± 0.063 | 6.667 ± 0.054
x2 = 0.4533 | – | 874.74 ± 0.2 | 871.22 ± 0.19 | 1355.6 ± 1.4 | 1339.8 ± 1.4 | 8.493 ± 0.067 | 7.176 ± 0.057
x2 = 0.5432 | 896.94 ± 0.19 | 893.37 ± 0.19 | 889.84 ± 0.18 | 1367.1 ± 1.4 | 1351.6 ± 1.4 | 9.257 ± 0.071 | 7.796 ± 0.061
x2 = 0.6441 | 922.82 ± 0.18 | 919.23 ± 0.18 | 915.68 ± 0.17 | 1385.6 ± 1.4 | 1370.4 ± 1.4 | 10.31 ± 0.078 | 8.65 ± 0.067
x2 = 0.701 | 940.61 ± 0.17 | 937.01 ± 0.17 | 933.39 ± 0.17 | – | – | – | –
x2 = 0.7517 | 959.57 ± 0.17 | 956 ± 0.17 | 952.37 ± 0.16 | 1416.1 ± 1.4 | 1401.6 ± 1.3 | 11.66 ± 0.087 | 9.722 ± 0.077
x2 = 0.9308 | 1051.63 ± 0.17 | 1048.12 ± 0.17 | 1044.52 ± 0.18 | 1532.9 ± 1.4 | 1520.3 ± 1.3 | 12.67 ± 0.094 | 10.47 ± 0.086
